# Source: publication PMC6375636, “Monotherapy with a low-dose lipopeptide HIV fusion inhibitor maintains long-term viral suppression in rhesus macaques” (PLoS Pathogens, 2019)
# Like-named read-outs stand apart in the source and are kept apart here. Peptide text beside a SMILES is read from it. * marks the point of attachment. Stearoyl = CCCCCCCCCCCCCCCCCC(=O)*
# Columns and labels:
# [1] = tested on: divergent HIV-1 subtypes (pseudoviruses with primary Envs); assay type: cell-based; conditions: mean of the 36 pseudoviruses of Table 3; for VRC01 >300000 apparently counted as 300000; read-out: Mean IC50 over divergent HIV-1 subtypes
# Method: (§1) The inhibitory activities of inhibitors against HIV-1 pseudoviruses and replication-competent isolates were measured as described previously. Briefly, HIV-1 pseudoviruses were generated via the cotransfection of HEK293T cells with an Env-expressing plasmid and a backbone plasmid that encodes Env-defective, luciferase-expressing HIV-1 genome (pSG3Δenv). Viral stocks of replication-competent HIV-1 isolates were generated by transfecting viral molecular clones into HEK293T cells. Culture supernatants were harvested at 48 h posttransfection, and 50% tissue culture infectious doses (TCID50) in TZM-bl cells were determined. Inhibitors were prepared in 3-fold dilutions, mixed with 100 TCID50 of a virus, and then incubated for 1 h at room temperature. The mixture was added to TZM-bl cells (10^4/well), and the cells were incubated for additional 48 h at 37°C. Luciferase activity was measured as described above.
# HIV-1 R3A = assay type: cell-based; conditions: Table 2, subtype B, R5X4, mean ± SD of 3 assays in triplicate
# Method: as §1
# [2] = tested on: HIV-1 pseudovirus, primary Env 246_F3_C10_2; assay type: cell-based; conditions: Env 246_F3_C10_2, subtype A/C; mean ± SD of 3 assays in triplicate
# Method: as §1
# [3] = tested on: HIV-1 pseudovirus, primary Env Du156; assay type: cell-based; conditions: Env Du156, subtype C; mean ± SD of 3 assays in triplicate
# Method: as §1
# [4] = tested on: HIV-1 pseudovirus, primary Env AC10.0.29; assay type: cell-based; conditions: Env AC10.0.29, subtype B; mean ± SD of 3 assays in triplicate
# Method: as §1
# HIV-1 LAI = assay type: cell-based; conditions: Table 2, subtype B, X4, mean ± SD of 3 assays in triplicate
# Method: as §1
# [5] = tested on: HIV-1 pseudovirus, primary Env CNE55; assay type: cell-based; conditions: Env CNE55, subtype A/E; mean ± SD of 3 assays in triplicate
# Method: as §1
# [6] = tested on: HIV-1 pseudovirus, primary Env 43–22; assay type: cell-based; conditions: Env 43–22, subtype B'; mean ± SD of 3 assays in triplicate
# Method: as §1
# [7] = tested on: replication-competent HIV-1 isolates; assay type: cell-based; conditions: mean of the ten isolates of Table 2; read-out: Mean IC50 over the replication-competent isolates
# Method: as §1
# [8] = tested on: HIV-1 pseudovirus, primary Env CH64.20; assay type: cell-based; conditions: Env CH64.20, subtype B/C; mean ± SD of 3 assays in triplicate
# Method: as §1
# HIV-1JRCSF = assay type: cell-based
# Method: as §1
# [9] = tested on: HIV-1 pseudovirus, primary Env TRO.11; assay type: cell-based; conditions: Env TRO.11, subtype B; mean ± SD of 3 assays in triplicate
# Method: as §1
# [10] = tested on: HIV-1NL4-3(D36G) pseudovirus; assay type: cell-based
# Method: as §1, with “Culture supernatants were harvested at 48 h posttransfection, and 50% tissue culture infectious doses (TCID50) in TZM-bl cells were determined.” left out, “The mixture was added to TZM-bl cells (10^4/well), and the cells were incubated for additional 48 h at 37°C.” left out
# [11] = lipopeptide alone, 10 μM in PBS, representative of 2 assays; for Helix content (%): [θ]222 / -33,000
# HIV-1HXB2 Env = molecular target: T1, HIV-1HXB2 Env (Human immunodeficiency virus type 1 group M subtype B, UniProt P04578); experiment: HIV-1HXB2 Env-mediated cell-cell fusion (HL2/3 effector, TZM-bl target, luciferase reporter); assay type: cell-based
# T1 construct: HL2/3 cells, which stably express high levels of Env, Gag, Tat, Rev, and Nef proteins of the integrated HIV-1 molecular clone HXB2/3gpt; host or cells: HL2/3 cells (effector), cocultured with TZM-bl target cells
# T1 sequence (P04578 512-856): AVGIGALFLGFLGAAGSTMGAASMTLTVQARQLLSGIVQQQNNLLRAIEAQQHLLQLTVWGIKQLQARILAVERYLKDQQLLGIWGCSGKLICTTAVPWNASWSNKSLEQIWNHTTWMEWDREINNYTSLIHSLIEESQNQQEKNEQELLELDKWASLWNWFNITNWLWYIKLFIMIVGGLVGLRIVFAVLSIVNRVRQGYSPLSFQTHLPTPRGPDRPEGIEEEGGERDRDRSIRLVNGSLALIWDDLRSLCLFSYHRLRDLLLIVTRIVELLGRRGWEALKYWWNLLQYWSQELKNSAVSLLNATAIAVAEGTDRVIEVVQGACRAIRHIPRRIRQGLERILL
# Method: The inhibitory activities of inhibitors on HIV-1HXB2 Env-mediated cell-cell fusion were determined by a reporter gene assay based on the activation of an HIV LTR-driven luciferase cassette in TZM-bl cells (target) by HIV-1 tat from HL2/3 cells (effector). Briefly, 1 x 10^4/well of TZM-bl cells were plated in 96-well plates and incubated at 37°C overnight. Then, 3 x 10^4/well of HL2/3 cells were cocultured with target cells for 6 h at 37°C in the presence or absence of an inhibitor at graded concentrations. Luciferase activity was measured using luciferase assay reagents and a Luminescence Counter (Promega, Madison, Wisconsin, USA).
# [12] = tested on: NL4-3G36S/V38M pseudovirus; assay type: cell-based, HIV-1; conditions: T-20 resistant, mean ± SD of 3 assays in triplicate
# Method: as §1, with “Culture supernatants were harvested at 48 h posttransfection, and 50% tissue culture infectious doses (TCID50) in TZM-bl cells were determined.” left out, “The mixture was added to TZM-bl cells (10^4/well), and the cells were incubated for additional 48 h at 37°C.” left out
# [13] = tested on: NL4-3I37T/N43K pseudovirus; assay type: cell-based, HIV-1; conditions: T-20 resistant, mean ± SD of 3 assays in triplicate
# Method: as §1, with “Culture supernatants were harvested at 48 h posttransfection, and 50% tissue culture infectious doses (TCID50) in TZM-bl cells were determined.” left out, “The mixture was added to TZM-bl cells (10^4/well), and the cells were incubated for additional 48 h at 37°C.” left out
# NL4-3Q40H pseudovirus = assay type: cell-based, HIV-1; conditions: T-20 resistant, mean ± SD of 3 assays in triplicate
# Method: as §1, with “Culture supernatants were harvested at 48 h posttransfection, and 50% tissue culture infectious doses (TCID50) in TZM-bl cells were determined.” left out, “The mixture was added to TZM-bl cells (10^4/well), and the cells were incubated for additional 48 h at 37°C.” left out
# NL4-3V38M pseudovirus = assay type: cell-based, HIV-1; conditions: T-20 resistant, mean ± SD of 3 assays in triplicate
# Method: as §1, with “Culture supernatants were harvested at 48 h posttransfection, and 50% tissue culture infectious doses (TCID50) in TZM-bl cells were determined.” left out, “The mixture was added to TZM-bl cells (10^4/well), and the cells were incubated for additional 48 h at 37°C.” left out
# NL4-3N43K pseudovirus = assay type: cell-based, HIV-1; conditions: T-20 resistant, mean ± SD of 3 assays in triplicate
# Method: as §1, with “Culture supernatants were harvested at 48 h posttransfection, and 50% tissue culture infectious doses (TCID50) in TZM-bl cells were determined.” left out, “The mixture was added to TZM-bl cells (10^4/well), and the cells were incubated for additional 48 h at 37°C.” left out
# NL4-3I37T pseudovirus = assay type: cell-based, HIV-1; conditions: T-20 resistant, mean ± SD of 3 assays in triplicate
# Method: as §1, with “Culture supernatants were harvested at 48 h posttransfection, and 50% tissue culture infectious doses (TCID50) in TZM-bl cells were determined.” left out, “The mixture was added to TZM-bl cells (10^4/well), and the cells were incubated for additional 48 h at 37°C.” left out
# NL4-3V38A pseudovirus = assay type: cell-based, HIV-1; conditions: T-20 resistant, mean ± SD of 3 assays in triplicate
# Method: as §1, with “Culture supernatants were harvested at 48 h posttransfection, and 50% tissue culture infectious doses (TCID50) in TZM-bl cells were determined.” left out, “The mixture was added to TZM-bl cells (10^4/well), and the cells were incubated for additional 48 h at 37°C.” left out
# [14] = Fig 1, replication-competent virus, mean ± SD of three assays in triplicate, read-out: Anti-HIV activity (IC50, pM) JRCSF infection
# [15] = Table 2, JR-CSF, subtype B, R5, mean ± SD of 3 assays in triplicate, read-out: Mean IC50
# [16] = Fig 1, NL4-3(D36G) pseudovirus, mean ± SD of three assays in triplicate, read-out: Anti-HIV activity (IC50, pM) NL4-3 entry
# [17] = Table 4, NL4-3D36G, T-20 sensitive, mean ± SD of 3 assays in triplicate, value in parentheses behind the bound, read-out: IC50
Structure (SMILES),IC50 [1],IC50 (HIV-1 R3A),IC50 [2],IC50 [3],IC50 [4],IC50 (HIV-1 LAI),IC50 [5],IC50 [6],IC50 [7],IC50 [8],IC50 (HIV-1JRCSF; [14]),IC50 (HIV-1JRCSF; [15]),IC50 [9],"IC50 [10, 16]","IC50 [10, 17]",Helix content (%) [11],IC50 (HIV-1HXB2 Env),IC50 [12],IC50 [13],IC50 (NL4-3Q40H pseudovirus),also measured
CCCCCCCCCCCCCCCCCC(=O)NCCCC[C@H](NC(=O)[C@H](CCC(=O)O)NC(=O)[C@H](CC(C)C)NC(=O)[C@H](CCCCN)NC(=O)[C@H](CCCCN)NC(=O)[C@H](CC(C)C)NC(=O)[C@H](CCC(=O)O)NC(=O)[C@H](CCC(=O)O)NC(=O)[C@H](CCC(=O)O)NC(=O)[C@H](CC(N)=O)NC(=O)[C@H](CCCCN)NC(=O)[C@H](CCCCN)NC(=O)[C@H](CCC(N)=O)NC(=O)[C@H](CCC(N)=O)NC(=O)[C@H](CCC(=O)O)NC(=O)[C@H](CCC(=O)O)NC(=O)[C@H](C)NC(=O)[C@H](CCCCN)NC(=O)[C@H](CCCCN)NC(=O)[C@H](CC(C)C)NC(=O)[C@H](CC(C)C)NC(=O)[C@H](CCC(=O)O)NC(=O)[C@H](CCC(=O)O)NC(=O)[C@@H](NC(C)=O)[C@@H](C)CC)C(N)=O [LP-90] (Ac-IEELLKKAEEQQKKNEEELKKLEK(Stearoyl)-NH2),13.4 pM,9.32 ± 1.21 pM,6.84 ± 0.47 pM,3.63 ± 0.67 pM,4.42 ± 0.28 pM,8.34 ± 1.54 pM,2.54 ± 0.89 pM,3.9 ± 1.33 pM,23.7 pM,7.72 ± 2.67 pM,5.4 pM,9.33 ± 1.97 pM,8.95 ± 2.3 pM,3.55 pM,< 10 pM,30%,16.3 pM,2370 ± 390 pM,46300 ± 790 pM,4170 ± 140 pM,IC50 (NL4-3V38M pseudovirus): 4320 ± 780 pM; IC50 (NL4-3N43K pseudovirus): 5050 ± 130 pM; IC50 (NL4-3I37T pseudovirus): 510 ± 90 pM; IC50 (NL4-3V38A pseudovirus): 8250 ± 550 pM
CCCCCCCCCCCCCCCCCC(=O)NCCCC[C@H](NC(=O)[C@H](CCC(=O)O)NC(=O)[C@H](CC(C)C)NC(=O)[C@H](CCCCN)NC(=O)[C@H](CCCCN)NC(=O)[C@H](CC(C)C)NC(=O)[C@H](CCC(=O)O)NC(=O)[C@H](CCC(=O)O)NC(=O)[C@H](CCC(=O)O)NC(=O)[C@H](CC(N)=O)NC(=O)[C@H](CCCCN)NC(=O)[C@H](CCCCN)NC(=O)[C@H](CCC(N)=O)NC(=O)[C@H](CCC(N)=O)NC(=O)[C@H](CCC(=O)O)NC(=O)[C@H](CCC(=O)O)NC(=O)[C@H](C)NC(=O)[C@H](CCCCN)NC(=O)[C@H](CCCCN)NC(=O)[C@H](CC(C)C)NC(=O)[C@H](CC(C)C)NC(=O)[C@H](CCC(=O)O)NC(=O)[C@H](CCC(=O)O)NC(=O)[C@@H](NC(=O)[C@H](CCCCN)NC(=O)[C@H](CCC(N)=O)NC(=O)[C@H](CCC(=O)O)NC(=O)[C@H](Cc1c[nH]c2ccccc12)NC(C)=O)[C@@H](C)CC)C(N)=O [LP-80] (Ac-WEQKIEELLKKAEEQQKKNEEELKKLEK(Stearoyl)-NH2),5.58 pM,5.67 ± 0.85 pM,4.05 ± 0.47 pM,1.1 ± 0.35 pM,5.01 ± 0.93 pM,5.85 ± 0.86 pM,1.11 ± 0.18 pM,3.24 ± 0.27 pM,7.09 pM,5.75 ± 0.19 pM,2.45 pM,4.02 ± 2.63 pM,3.92 ± 0.26 pM,1.62 pM,< 10 pM,52%,12.6 pM,70 ± 10 pM,3790 ± 50 pM,130 ± 20 pM,"Tm (°C) ([11]; ellipticity at 222 nm, 20-98°C, 2°C/min): 56 °C; IC50 (NL4-3V38M pseudovirus): 130 ± 20 pM; IC50 (NL4-3N43K pseudovirus): 250 ± 20 pM; IC50 (NL4-3I37T pseudovirus): 50 pM; IC50 (NL4-3V38A pseudovirus): 230 ± 30 pM"
